According to patent US20250268826A1, “IONIZABLE LIPIDOID COMPOSITIONS AND THERAPEUTIC USES THEREOF” (Flagship Pioneering Innovations VII, LLC, priority 2023, published 2025):
Read-outs that look alike come from different tables or passages of the source.

Experiments:
[1] = LNP Zeta potential measured using a Zetasizer (Malvern); type: physicochemical; details: for Zeta potential: LNP 50:10:38.5:1.5 mol %, hEPO mRNA, N:P 6; for Zeta potential (mV): Table 11, LNP with hEPO mRNA, Lipid:DSPC:Cholesterol:DMG-PEG2k 50:10:38.5:1.5 mol % (ALC-0315: 46.3:9.4:42.7:1.6), N:P ratio 6, HEPES/sodium chloride/sucrose buffer, stored at −80C
[2] = LNP size and polydispersity index (PDI) by dynamic light scattering (DLS); type: physicochemical; details: for Size: LNP Lipid:DSPC:Cholesterol:DMG-PEG2k 50:10:38.5:1.5 mol %
[3] = Apparent pKa of the LNPs by fluorescence based TNS assay; details: for Apparent pKa: Vaccine Study 2, LNP with spike mRNA, 50/10/38.5/1.5 mol % ionizable lipid:helper lipid:cholesterol:DMG-PEG2k, N-to-P ratio 6
[4] = Encapsulation efficiency (EE %) by fluorescence based Ribogreen assay; type: physicochemical
[5] = Table 8, LNP 50:10:38.5:1.5 mol %, hEPO mRNA, N:P 6
[6] = Table 9, LNP 50:10:38.5:1.5 mol %, hEPO mRNA, N:P 6
[7] = Vaccine Study 2, LNP with spike mRNA, 50/10/38.5/1.5 mol % ionizable lipid:helper lipid:cholesterol:DMG-PEG2k, N-to-P ratio 6
[8] = Table 11, LNP with hEPO mRNA, Lipid:DSPC:Cholesterol:DMG-PEG2k 50:10:38.5:1.5 mol % (ALC-0315: 46.3:9.4:42.7:1.6), N:P ratio 6, HEPES/sodium chloride/sucrose buffer, stored at −80C

| Zeta potential ([1]; Table 9) [mV] | PDI [2, 6] | Size ([2]; Table 9, hEPO mRNA, N:P 6) [nm] | Encapsulation Efficiency % [4, 6] [%] | Zeta potential (mV) [1] [mV] | PDI [2, 8] | Size (nm) [2, 8] [nm] | Encapsulation Efficiency % [4, 8] [%] | Structure (SMILES) | other results |
| --- | --- | --- | --- | --- | --- | --- | --- | --- | --- |
| – | – | – | – | −2.1 | 0.102 | 74.1 | 93.6 | CCCCCCCC(CCCCCCC)C(=O)OCCN(CCOC(=O)C(CCCCCCC)CCCCCCC)C(=O)C(C)CCN(C)C.Cl (stereo not shown) [Compound 987b] | – |
| – | – | – | – | −6.6 | 0.066 | 72.0 | 98.0 | CCCCCCCCCC(CCCCCCCCC)C(=O)OCCN(CCOC(=O)C(CCCCCCCCC)CCCCCCCCC)C(=O)C(C)CCN(C)C.Cl (stereo not shown) [Compound 987c] | – |
| – | – | – | – | −1.5 | 0.092 | 62.9 | 99.2 | CCCCCCCCC(CCCCCC)C(=O)OCCN(CCOC(=O)C(CCCCCC)CCCCCCCC)C(=O)C(C)CCNC.Cl (stereo not shown) [Compound 987d] | – |
| – | – | – | – | 0.8 | 0.110 | 70.5 | 99.4 | CCCCCCCCC(CCCCCC)C(=O)OCCN(CCOC(=O)C(CCCCCC)CCCCCCCC)C(=O)C(C)CCNCC.Cl (stereo not shown) [Compound 987e] | – |
| – | – | – | – | −2.8 | 0.072 | 79.4 | 92.3 | CCCCCCCCC(CCCCCC)C(=O)OCCN(CCOC(=O)C(CCCCCC)CCCCCCCC)C(=O)C(C)CCN(C)CC.Cl (stereo not shown) [Compound 987f] | – |
| – | – | – | – | −3.5 | 0.097 | 70.5 | 95.4 | CCCCCCCCC(CCCCCC)C(=O)OCCN(CCOC(=O)C(CCCCCC)CCCCCCCC)C(=O)C(C)CCN(CC)CC.Cl (stereo not shown) [Compound 987g] | – |
| – | – | – | – | 0.0 | 0.099 | 69.1 | 99.4 | CCCCCCCCC(CCCCCC)C(=O)OCCN(CCOC(=O)C(CCCCCC)CCCCCCCC)C(=O)C(C)CCNCCC.Cl (stereo not shown) [Compound 987h] | – |
| – | – | – | – | −4.1 | 0.059 | 71.7 | 94.9 | CCCCCCCCC(CCCCCC)C(=O)OCCN(CCOC(=O)C(CCCCCC)CCCCCCCC)C(=O)C(C)CCN(C)CCC.Cl (stereo not shown) [Compound 987i] | – |
| – | – | – | – | −4.4 | 0.101 | 76.6 | 95.7 | CCCCCCCCC(CCCCCC)C(=O)OCCN(CCOC(=O)C(CCCCCC)CCCCCCCC)C(=O)C(C)CCN(CC)CCC.Cl (stereo not shown) [Compound 987j] | – |
| – | – | – | – | −3.4 | 0.045 | 76.7 | 87.2 | CCCCCCCCC(CCCCCC)C(=O)OCCN(CCOC(=O)C(CCCCCC)CCCCCCCC)C(=O)C(C)CCN(CCC)CCC.Cl (stereo not shown) [Compound 987k] | – |
| – | – | – | – | −2.9 | 0.051 | 76.4 | 95.9 | CCCCCCCCC(CCCCCC)C(=O)OCCN(CCOC(=O)C(CCCCCC)CCCCCCCC)C(=O)C(C)CCN1CCCC1.Cl (stereo not shown) [Compound 987l] | – |
| – | – | – | – | −5.1 | 0.076 | 73.7 | 94.9 | CCCCCCCCC(CCCCCC)C(=O)OCCN(CCOC(=O)C(CCCCCC)CCCCCCCC)C(=O)C(C)CCN1CCCCC1.Cl (stereo not shown) [Compound 987m] | – |
| – | – | – | – | −3.8 | 0.107 | 65.7 | 77.8 | CCCCCCCCC(CCCCCC)C(=O)OCCN(CCOC(=O)C(CCCCCC)CCCCCCCC)C(=O)C(C)CCN1CCOCC1.Cl (stereo not shown) [Compound 987n] | – |
| – | – | – | – | −4.1 | 0.121 | 57.4 | 90.2 | CCCCCCCCC(CCCCCC)C(=O)OCCN(CCOC(=O)C(CCCCCC)CCCCCCCC)C(=O)C(C)CCN(CCCC)CCCC.Cl (stereo not shown) [Compound 987o] | – |
| – | – | – | – | −1.5 | 0.114 | 74.2 | 99.2 | CCCCCCCCC(CCCCCC)C(=O)OCCN(CCOC(=O)C(CCCCCC)CCCCCCCC)C(=O)C(C)CCN(C)CCO.Cl (stereo not shown) [Compound 987p] | – |

Second part, the compound before the results:

| Structure (SMILES) | Zeta potential ([1]; Table 9) [mV] | PDI [2, 6] | Size ([2]; Table 9, hEPO mRNA, N:P 6) [nm] | Encapsulation Efficiency % [4, 6] [%] | Zeta potential (mV) [1] [mV] | PDI [2, 8] | Size (nm) [2, 8] [nm] | Encapsulation Efficiency % [4, 8] [%] | other results |
| --- | --- | --- | --- | --- | --- | --- | --- | --- | --- |
| CCCCCCCC(CCCCCCC)C(=O)OCCN(CCOC(=O)C(CCCCCCC)CCCCCCC)C(=O)CCCN(C)C [Compound 932] | – | – | – | – | – | – | – | – | Zeta potential ([1]; Table 8): −9.4 mV; PDI [2, 5]: 0.155; Size ([2]; Table 8, hEPO mRNA, N:P 6): 123.7 nm; pKa ([3]; Table 8, apparent pKa of LNP 50:10:38.5:1.5 mol %, hEPO mRNA, N:P 6): 6.92; Encapsulation Efficiency % [4, 5]: 99.9% |
| CCCCCCCCC(CCCCCC)C(=O)OCCN(CCOC(=O)C(CCCCCC)CCCCCCCC)C(=O)CN1CCCC1.Cl (stereo not shown) [Compound 960c] | −20.89 | 0.079 | 88 | 99.7 | – | – | – | – | – |
| CCCCCCCCC(CCCCCC)C(=O)OCCN(CCOC(=O)C(CCCCCC)CCCCCCCC)C(=O)CN1CCCCC1.Cl (stereo not shown) [Compound 960d] | −32.3 | 0.133 | 74.5 | 99.5 | – | – | – | – | – |
| CCCCCCCCC(CCCCCC)C(=O)OCCN(CCOC(=O)C(CCCCCC)CCCCCCCC)C(=O)CN1CCOCC1.Cl (stereo not shown) [Compound 960e] | −45.58 | 0.384 | 73.3 | 99.4 | – | – | – | – | – |
| CCCCCCCCC(CCCCCC)C(=O)OCCN(CCOC(=O)C(CCCCCC)CCCCCCCC)C(=O)CN(C)CCO.Cl (stereo not shown) [Compound 960g] | −12.1 | 0.254 | 72.6 | 99 | – | – | – | – | – |
| CCCCCCCC(CCCCCCC)C(=O)OCCN(CCOC(=O)C(CCCCCCC)CCCCCCC)C(=O)CN(C)C.Cl [Compound 962] | −30.33 | 0.132 | 74.9 | 99.6 | – | – | – | – | – |
| CCCCCCCCCC(CCCCCCCCC)C(=O)OCCN(CCOC(=O)C(CCCCCCCCC)CCCCCCCCC)C(=O)CN(C)C.Cl [Compound 963] | −41.21 | 0.447 | 76.1 | 99.2 | – | – | – | – | – |
| CCCCCCCCC(CCCCCC)C(=O)OCCN(CCOC(=O)C(CCCCCC)CCCCCCCC)C(=O)CNC.Cl (stereo not shown) [Compound 964] | −26.13 | 0.317 | 73.9 | 99.3 | – | – | – | – | – |
| CCCCCCCCC(CCCCCC)C(=O)OCCN(CCOC(=O)C(CCCCCC)CCCCCCCC)C(=O)CNCC.Cl (stereo not shown) [Compound 965] | −14.27 | 0.216 | 76.3 | 98.6 | – | – | – | – | – |
| CCCCCCCCC(CCCCCC)C(=O)OCCN(CCOC(=O)C(CCCCCC)CCCCCCCC)C(=O)CN(C)CC.Cl (stereo not shown) [Compound 966] | −36.65 | 0.076 | 89.5 | 97.8 | – | – | – | – | – |
| CCCCCCCCC(CCCCCC)C(=O)OCCN(CCOC(=O)C(CCCCCC)CCCCCCCC)C(=O)CN(CC)CC.Cl (stereo not shown) [Compound 967] | −21.99 | 0.101 | 82.1 | 97.9 | – | – | – | – | – |
| CCCCCCCCC(CCCCCC)C(=O)OCCN(CCOC(=O)C(CCCCCC)CCCCCCCC)C(=O)CNCCC.Cl (stereo not shown) [Compound 968] | −13.15 | 0.368 | 76.7 | 98.2 | – | – | – | – | – |
| CCCCCCCCC(CCCCCC)C(=O)OCCN(CCOC(=O)C(CCCCCC)CCCCCCCC)C(=O)CN(C)CCC.Cl (stereo not shown) [Compound 969] | −28.83 | 0.15 | 70 | 99.4 | – | – | – | – | – |
| CCCCCCCCC(CCCCCC)C(=O)OCCN(CCOC(=O)C(CCCCCC)CCCCCCCC)C(=O)CCCN(CC)CCC.Cl (stereo not shown) [Compound 980] | – | – | – | – | – | – | – | – | Zeta potential ([1]; Table 8): −18.1 mV; PDI [2, 5]: 0.159; Size ([2]; Table 8, hEPO mRNA, N:P 6): 90.1 nm; Encapsulation Efficiency % [4, 5]: 94.9% |
| CCCCCCCCC(CCCCCC)C(=O)OCCN(CCOC(=O)C(CCCCCC)CCCCCCCC)C(=O)CCCN(CCC)CCC.Cl (stereo not shown) [Compound 981] | – | – | – | – | – | – | – | – | Zeta (mV) [1, 7]: −8.8 mV; PDI [2, 7]: 0.054; Size (nm) [2, 7]: 84.3 nm; Apparent pKa [3]: 7.3; EE (%) [4, 7]: 98.3% |
| CCCCCCCCC(CCCCCC)C(=O)OCCN(CCOC(=O)C(CCCCCC)CCCCCCCC)C(=O)CCCN1CCCC1.Cl (stereo not shown) [Compound 982] | – | – | – | – | – | – | – | – | Zeta potential ([1]; Table 8): −14.2 mV; PDI [2, 5]: 0.081; Size ([2]; Table 8, hEPO mRNA, N:P 6): 120.5 nm; Encapsulation Efficiency % [4, 5]: 99.9% |
| CCCCCCCCC(CCCCCC)C(=O)OCCN(CCOC(=O)C(CCCCCC)CCCCCCCC)C(=O)CCCN1CCCCC1.Cl (stereo not shown) [Compound 983] | – | – | – | – | – | – | – | – | Zeta potential ([1]; Table 8): −15.9 mV; PDI [2, 5]: 0.114; Size ([2]; Table 8, hEPO mRNA, N:P 6): 90.4 nm; Encapsulation Efficiency % [4, 5]: 97.1% |
| CCCCCCCCC(CCCCCC)C(=O)OCCN(CCOC(=O)C(CCCCCC)CCCCCCCC)C(=O)CCCN(C)CCO.Cl (stereo not shown) [Compound 986] | – | – | – | – | – | – | – | – | Zeta potential ([1]; Table 8): −8.2 mV; PDI [2, 5]: 0.088; Size ([2]; Table 8, hEPO mRNA, N:P 6): 112.9 nm; Encapsulation Efficiency % [4, 5]: 99.9% |
| CCCCCCCCC(CCCCCC)C(=O)OCCN(CCOC(=O)C(CCCCCC)CCCCCCCC)C(=O)C(C)CCN(C)C (stereo not shown) [Compound 987a] | – | – | – | – | −3.5 | – | – | – | PDI [2]: 0.104; Size (nm) [2]: 73.2 nm; Encapsulation Efficiency % [4]: 95.7% |
| CCCCC/C=C\C/C=C\CCCCCCCCC(CCCCCCCC/C=C\C/C=C\CCCCC)OC(=O)CCCN(C)C [Dlin-MC3-DMA, dilinoleylmethyl-4-dimethylaminobutyrate, reference compound] | – | – | – | – | – | – | – | – | Apparent pKa [3]: 6.7 |
